Measured values taken from US10905651B1, “Zeinmersome nanocarriers for drug delivery to the liver” (King Abdulaziz University, priority 2020, dated 2021).

Columns and labels:
[1] = test system: TAA-induced hepatic fibrosis rats; experiment: Assessment of liver function (plasma ALT and AST) in TAA-induced hepatic fibrosis rats; type: in vivo, rat; settings: mean ± SEM, n=8
Method: The protocol for this study was approved by the King Abdulaziz University Research Ethics Committee and adhered to the international guidelines for the Care and Use of Laboratory Animals. Adult Sprague-Dawley male rats weighing 200-250 g were obtained from King Fahd Research Center and housed in cages at 20-22° C. room temperature in a 12 h light-dark cycle. After one week of acclimatization, rats were used in the experiment. Food and water were available ad libitum. Rats were given freshly prepared TAA (0.9% w/v in saline solution, 200 mg/kg, ip) twice weekly for eight weeks. A normal control (NC) group of rats (n=8) received injections of the vehicle twice weekly for eight weeks. The TAA-treated rats were randomly assigned to groups (n=8), including a test group for each dosage of a free drug (not encapsulated in ZMS), each dosage of zeinmersomes encapsulating the drug, and a positive control group (PC) having hepatic fibrosis but receiving a vehicle-only treatment instead of a drug treatment. Five groups of rats (n=8) were given freshly prepared TAA (0.9% w/v in saline solution, 200 mg/kg, ip) twice weekly for eight weeks and a normal control (NC) group received vehicle injections, as described in Example 4. The five TAA groups included a positive control group (PC, untreated) and four groups treated with low and high doses (2 and 4 mg/kg/day) of OM as raw drug (OL & OH, respectively) and the same low and high doses (2 and 4 mg/kg/day) of OM formulated as zeinmersomes (OLZMS & OHZMS, respectively). The OM standard drug was suspended in distilled water containing 0.25% w/v carboxymethyl cellulose. The doses were given by oral gavage once daily for two months. […] At the end of treatment duration, blood samples were withdrawn from the retro-orbital plexus of the rats under light ether anesthesia. Plasma was separated and kept at −80° C. until analysis. Then, the rats were sacrificed by cervical dislocation under ether anesthesia. Liver and duodenum were isolated and parts of each were kept in 10% formalin-saline for histopathological examination. Other portions of liver tissue were homogenized. The plasma levels of ALT and AST and the homogenate levels of IL-6, reduced glutathione (GSH), TNF-α, malondialdehyde (MDA), and protein content were measured using ELISA kits (MyBioSource, Inc. CA, USA). In addition, the concentrations of olmesartan in plasma and liver homogenate were measured by HPLC/MS. Data are expressed as mean±SEM Comparisons between different groups were carried out using one-way analysis of variance (ANOVA) followed by Bonferroni test for multiple comparisons. […] The levels of ALT and AST were measured by using ELISA commercially available kits according to the manufacturer's protocol.

[2] = test system: TAA-induced hepatic fibrosis rats; experiment: Inflammatory and oxidative markers in liver homogenate of TAA-induced hepatic fibrosis rats; type: in vivo, rat; settings: two months; for IL-6 level in liver homogenate (reversal of TAA-induced increase): FIG. 5A; for TNF-α level in liver homogenate (reversal of TAA-induced increase): FIG. 5B; for MDA level in liver homogenate (reversal of TAA-induced increase): FIG. 6A; for GSH level in liver homogenate (reversal of TAA-induced decrease): FIG. 6B
Method: Rats were given freshly prepared TAA (0.9% w/v in saline solution, 200 mg/kg, ip) twice weekly for eight weeks. A normal control (NC) group of rats (n=8) received injections of the vehicle twice weekly for eight weeks. The TAA-treated rats were randomly assigned to groups (n=8), including a test group for each dosage of a free drug (not encapsulated in ZMS), each dosage of zeinmersomes encapsulating the drug, and a positive control group (PC) having hepatic fibrosis but receiving a vehicle-only treatment instead of a drug treatment. Five groups of rats (n=8) were given freshly prepared TAA (0.9% w/v in saline solution, 200 mg/kg, ip) twice weekly for eight weeks and a normal control (NC) group received vehicle injections, as described in Example 4. The five TAA groups included a positive control group (PC, untreated) and four groups treated with low and high doses (2 and 4 mg/kg/day) of OM as raw drug (OL & OH, respectively) and the same low and high doses (2 and 4 mg/kg/day) of OM formulated as zeinmersomes (OLZMS & OHZMS, respectively). The OM standard drug was suspended in distilled water containing 0.25% w/v carboxymethyl cellulose. The doses were given by oral gavage once daily for two months. […] At the end of treatment duration, blood samples were withdrawn from the retro-orbital plexus of the rats under light ether anesthesia. Plasma was separated and kept at −80° C. until analysis. Then, the rats were sacrificed by cervical dislocation under ether anesthesia. Liver and duodenum were isolated and parts of each were kept in 10% formalin-saline for histopathological examination. Other portions of liver tissue were homogenized. The plasma levels of ALT and AST and the homogenate levels of IL-6, reduced glutathione (GSH), TNF-α, malondialdehyde (MDA), and protein content were measured using ELISA kits (MyBioSource, Inc. CA, USA). In addition, the concentrations of olmesartan in plasma and liver homogenate were measured by HPLC/MS. A part of the liver of each animal was rapidly dissected out, washed, and homogenized in phosphate-buffered saline (0.01M PBS, pH 7.4) using a TissueLyser II (Qiagen; Venlo, Netherlands) at 4° C. to produce a 10% homogenate. The homogenates were centrifugated at 10000 rpm for 15 min at 4° C. and the supernatant was kept at −80° C. till time of analysis. The levels of TNF-α, IL-6, malondialdehyde (MDA), and reduced glutathione (GSH) were measured by the ELISA kits using a micro plate reader (Versa Max, Molecular Devices). The protein content in the liver homogenate was determined by using a colorimetric kit based on Bradford method (Bradford 1976) and the levels of IL-6, TNF-α, GSH, and MDA were expressed/mg protein. The IL-6 level was measured by using the competitive enzyme immunoassay technique utilizing a polyclonal anti-IL-6 antibody and an IL-6-HRP conjugate. The assay sample and buffer were incubated together with IL-6-HRP conjugate in pre-coated plate for one hour. After washing, the wells were then incubated with a substrate for HRP enzyme. The product of the enzyme-substrate reaction formed a blue colored complex. Finally, a stop solution was added to stop the reaction, which then turned the solution yellow. Absorbance was read at 450 nm in a microplate reader. The TNF-α level was measured by using the principle of double antibody sandwich ELISA technique is used. Anti-TNF-α antibody was pre-coated on the wells. Add biotin labeled anti-TNF-α antibodies to combine with the antigens on immune complexes. Avidin-Biotin-Peroxidase Complex was added, and unbound conjugates were washed away with wash buffer. TMB substrates were used to visualize HRP enzymatic reaction producing a blue color product that changed into yellow after adding acidic stop solution. The density of yellow is proportional to TNF-α amount of sample captured in plate. Absorbance was read at 450 nm. The GSH level was measured by using the principle of double antibody sandwich ELISA technique. Anti-GSH antibody was pre-coated on the wells. […]

[3] = test system: bile duct-ligated fibrotic rats; settings: 1 mg/kg/day orally; cited from earlier work
[4] = high dose 4 mg/kg/day oral gavage once daily for two months
[5] = low dose 2 mg/kg/day oral gavage once daily for two months

With `CCCc1nc(C(C)(C)O)c(C(=O)OCc2oc(=O)oc2C)n1Cc1ccc(-c2ccccc2-c2nnn[nH]2)cc1` [OM, (5-methyl-2-oxo-1,3-dioxol-4-yl)methyl 5-(2-hydroxypropan-2-yl)-2-propyl-3-[[4-[2-(2H-tetrazol-5-yl)phenyl]phenyl]methyl]imidazole-4-carboxylate] the “plasma ALT” value [1, 4] was 81.41 U/L, the “plasma AST” value [1, 4] was 169.00 U/L and the “plasma ALT” value [1, 5] was 114.88 U/L. The “plasma AST” value [1, 5] was 198.32 U/L, the “IL-6 level in liver homogenate (reversal of TAA-induced increase)” value ([2]; high dose 4 mg/kg/day oral) was “significantly reversed” and the “TNF-α level in liver homogenate (reversal of TAA-induced increase)” value ([2]; high dose 4 mg/kg/day oral) was “significantly reversed”. For the same compound, the “MDA level in liver homogenate (reversal of TAA-induced increase)” value ([2]; high dose 4 mg/kg/day oral) was “significantly reversed”, the “GSH level in liver homogenate (reversal of TAA-induced decrease)” value ([2]; high dose 4 mg/kg/day oral) was “significantly reversed” and the “IL-6 level in liver homogenate (reversal of TAA-induced increase)” value ([2]; low dose 2 mg/kg/day oral) was “All treatments except for OL significantly reversed”. The “TNF-α level in liver homogenate (reversal of TAA-induced increase)” value ([2]; low dose 2 mg/kg/day oral) was “All treatments except for OL significantly reversed”, the “MDA level in liver homogenate (reversal of TAA-induced increase)” value ([2]; low dose 2 mg/kg/day oral) was “All treatments except for OL significantly reversed” and the “GSH level in liver homogenate (reversal of TAA-induced decrease)” value ([2]; low dose 2 mg/kg/day oral) was “All treatments except for OL significantly reversed”. For the same compound, the “liver hydroxyproline content, mRNA expression of collagen, α-smooth muscle actin, and plasma levels of TGF-β” value [3] was “significantly reduced”.
